Reference: patent US20130059324A1, “SYSTEMS AND METHODS FOR MECHANICALLY STRAINED CELL CULTURE” (THE UNIVERSITY OF KANSAS, priority 2010, published 2013)
Like-named read-outs stand apart in the source and are kept apart here.

What was measured:
A549 cells [1] = experiment: Drug exposure with or without simulated forces, 6-well Bioflex plates, live cell count and exponential growth model; assay type: cell-based, human; details: for Growth Rates, With forces / Growth Rates, Without forces: drug at IC90 for 3 days; for Growth Rates, With forces: 20% maximum strain, 15 cycles/minute; for Growth Rates, Without forces: no forces, negative = reduction in viable cell count; for Effectiveness of The Drug, Without forces (E) / Effectiveness of The Drug, With forces (Ef): percentage reduction in live cell counts; for Effectiveness of The Drug, Without forces (E): 3-day drug exposure at IC90, no forces; for Effectiveness of The Drug, With forces (Ef): 3-day drug exposure at IC90, simulated forces
Experimental: (§1) Treatments 1, 2 and 3 served as unstretched controls for Treatments 4, 5 and 6, respectively. For each cell line and drug, all treatments were independently repeated at least 3 times on different days, with 3 replicates per Treatments 1 and 4 (n=9) and 5 replicates per all other treatments (n=15).
Cells were passaged in 75 cm2 culture flasks at 37° C. in 5% CO2, and trypsinized using TryplE™ Express (Gibco) containing phenol red.
Cells were plated in 6-well Bioflex® plates (Flexcell® International Corporation, Hillsborough, N.C.). Each well of the plate has a flexible elastic membrane coated with a thin layer of type I collagen. Type I collagen was chosen since it more accurately represents the physiology of lung tumor cells in vivo. […] In Treatments 1, 2 and 3, NCI-H358 and A549 cells were plated at a density of 100,000 and 20,000 cells/well in 2 ml of corresponding media, respectively. For treatments involving simulated forces (Treatments 4-6), NCI-H358 and A549 cells were plated at a density of 170,000 and 35,000 cells/well, respectively.
(§2) After allowing the cells to adhere to the membrane for 24 hours, the plates assigned for simulated forces were stretched using the FX-4000 Tension plus unit (Flexcell® International Corporation, Hillsborough, N.C.). The Flexcell unit was configured to deliver an alternating positive and negative pressure beneath the cell culture surfaces. Negative pressure pulls the culture surface down over a stationary Delrin post on the baseplate, delivering a uniform biaxial strain to the cells, and subsequent application of positive pressure releases this distension (FIGS. 9A and 9B.) In this manner, the alternating positive and negative pressure simulates forces experienced during respiration. Culture plates experiencing forces were fitted with rubber gaskets and placed on circular loading stations in the baseplate.
After 72 hours of initial seeding, one of the five drugs was added to Treatments 3 and 6 of each cell line. […] To insure comparability, an aliquot of 1 ml of media without the drug was added to each well in Treatments 2 and 5. After adding the drug or 1 ml of media, the plates from Treatments 5 and 6 were placed back on the baseplate and subjected to the same force profile as before for the remaining 72 hours. Plates from Treatments 2 and 3 (without forces) were placed in the same incubator for the remaining 72 hours.
(§3) Cells were trypsinized and counted at the end of day 3 in Treatments 1 and 4, and at the end of day 6 in the other treatments, using a Beckman Coulter Vi-Cell Analyzer (Beckman Coulter, Fullerton, Calif.). To examine changes in morphology, microphotographs of A549 and NCI-H358 cells were taken at the end of Treatments 1, 2, 4 and 5 using an Olympus inverted microscope and a 10× objective.
The standard exponential cell growth model (28) was used to describe the changes in live cell counts after each treatment. According to this model, the cell count (e.g., N) at a particular time (e.g., t), is given by the equation:
N* is the initial cell count and λ is the cell growth rate. For each cell line, the following cell growth rates were estimated: λ=growth rate in the absence of forces and drugs, λd=growth rate in the presence of a particular drug but no forces, λXf=growth rate in the presence of forces but no drugs; and λfd=growth rate in the presence of forces and a particular drug. The growth rates λd and λfd were estimated for each tested drug. Using these growth rates and the exponential growth model, the final cell counts were mathematically modeled for each treatment under various conditions (FIG. 8). For each cell line, a linear regression model that combined the information from the 5 investigated drugs was built using Stata Statistical Software (StataCorp LP, Texas) after log-transforming the six equations listed in FIG. 8. The regression coefficients in the model were the growth rates.

[2] = tested on: cells in a static monolayer culture; experiment: IC90 in static monolayer culture (tested concentration); assay type: cell-based; details: concentration that inhibits the growth of 90% of the cells in a static monolayer culture
Experimental: Table 1 includes a list of investigated chemotherapeutic drugs, their mechanisms of action and the tested concentrations.
(§4) After 72 hours of initial seeding, one of the five drugs was added to Treatments 3 and 6 of each cell line. […] The IC90, concentration of the drug that inhibits the growth of 90% of the cells in a static monolayer culture, was used to assure a significant inhibition in the absence of simulated forces. To insure comparability, an aliquot of 1 ml of media without the drug was added to each well in Treatments 2 and 5. After adding the drug or 1 ml of media, the plates from Treatments 5 and 6 were placed back on the baseplate and subjected to the same force profile as before for the remaining 72 hours. Plates from Treatments 2 and 3 (without forces) were placed in the same incubator for the remaining 72 hours.

NCI-H358 cells = experiment: Drug exposure with or without simulated forces, 6-well Bioflex plates, live cell count and exponential growth model; assay type: cell-based, human; details: for Growth Rates, With forces / Growth Rates, Without forces: drug at IC90 for 3 days; for Growth Rates, With forces: 20% maximum strain, 15 cycles/minute; for Growth Rates, Without forces: no forces; for Effectiveness of The Drug, Without forces (E) / Effectiveness of The Drug, With forces (Ef): percentage reduction in live cell counts; for Effectiveness of The Drug, Without forces (E): 3-day drug exposure at IC90, no forces; for Effectiveness of The Drug, With forces (Ef): 3-day drug exposure at IC90, simulated forces
Excerpt: as §1
The NCI-H358 (ATCC® CRL-5807) and A549 (ATCC® CCL-185) cell lines were obtained from American Type Culture Collection (ATCC, Manassas, Va.) and cultured in RPMI-1640 (NCI-H358) and HAM's F12K (A549) media containing 10% Fetal Bovine Serum (Sigma Aldrich, St. Louis, Mo.) and 1% Penicillin Streptomycin (Sigma Aldrich). Cells were passaged in 75 cm2 culture flasks at 37° C. in 5% CO2, and trypsinized using TryplE™ Express (Gibco) containing phenol red.
Cells were plated in 6-well Bioflex® plates (Flexcell® International Corporation, Hillsborough, N.C.). Each well of the plate has a flexible elastic membrane coated with a thin layer of type I collagen. Type I collagen was chosen since it more accurately represents the physiology of lung tumor cells in vivo. The Flexcell is not configured for drug studies as described herein, and had to be modified as described herein. […] Therefore, to have the same number of cells in culture at the time of drug exposure, initial seeding densities for treatments not involving simulated forces (Treatments 1-3) and those involving forces (Treatments 4-6) were adjusted for each cell line. In Treatments 1, 2 and 3, NCI-H358 and A549 cells were plated at a density of 100,000 and 20,000 cells/well in 2 ml of corresponding media, respectively. For treatments involving simulated forces (Treatments 4-6), NCI-H358 and A549 cells were plated at a density of 170,000 and 35,000 cells/well, respectively.
as §2, with “baseplate. […] Cells were preconditioned with mechanical forces for 48 hours, in an incubator at 37° C., 5% CO2 and 95% relative humidity.” for “baseplate.”
as §4, §3
The standard exponential cell growth model (28) was used to describe the changes in live cell counts after each treatment. […]

A549 cells [3] = experiment: Prototype 96-well plate, MTS assay with and without mechanical forces; assay type: cell-based, human
Experimental: (§5) The prototype plate was read using the Biotek plate reader at the wavelength of 490 nm until the media only wells absorbance reached 1.0. For the +M group plate, 30 ul of MTS was added to the assigned wells and kept in the incubator for the same amount of time that required for the −M group to develop and read at the same wavelength.

H358 cells [4] = experiment: as above; assay type: cell-based, human; details: drug at IC90, 24 hours, 490 nm; for MTS absorbance after 24 hours of drug exposure, With forces (Ef): mechanical forces; for MTS absorbance after 24 hours of drug exposure, Without forces (E): no forces
Experimental: as §5

H358 cells [5] = experiment: Prototype 96-well plate, viable cell count (Vi-Cell) with and without mechanical forces; assay type: cell-based, human; details: for Effect of mechanical forces on viable cell count / cytotoxicity: 24 hours drug exposure, prototype 96-well plate; for Viable Cell Count after 24 hours of drug exposure, With forces (Ef) / Viable Cell Count after 24 hours of drug exposure, Without forces (E): drug at IC90, 24 hours; for Viable Cell Count after 24 hours of drug exposure, With forces (Ef): mechanical forces; for Viable Cell Count after 24 hours of drug exposure, Without forces (E): no forces
Experimental: (§6) After allowing the cells to adhere to the flexible membrane of the 96 well plate for 24 hours, the loading pins and the system described in FIG. 7 to implement mechanical strain were used to deliver 20% maximum strain for 2 seconds to the plate assigned for mechanical forces (+M Group), followed by 2 seconds of rest (15 cycles per minute with an average strain of 10% per cycle) in keeping with a normal human respiration.
In a parallel experiments, the cells were treated with anti-tumor drug after 72 hours of initial seeding (after 48 hours of mechanical stretching). The drug was dissolved in dimethyl sulfoxide (DMSO) at stock concentration and added to the respective media. An aliquot of 50 μl of drug stock solution was added to the well containing 100 μl of media (a 1:3 dilution) in a drug plate to get the desired IC90 concentration of the drug (Table 1). The IC90 concentrations of the drugs were then added to prototype plate.
(§7) The +M Group was subjected to continuous mechanical stretching while the −M Group plate was placed in the same incubator for additional 24 hours.
In order to quantify viability, 6 wells per treatment group for ViCell counter and 6 wells per condition for MTS were assigned to determine the cell viability. Using Vi-Cell counter, assigned wells were filled with extra 210 μl of media to keep the volume constant in all the wells.

A549 cells [6] = tested on: A549 cells
Experimental: as §6
(§8) In a parallel experiments, the cells were treated with anti-tumor drug after 72 hours of initial seeding (after 48 hours of mechanical stretching). The drug was dissolved in dimethyl sulfoxide (DMSO) at stock concentration and added to the respective media. […] The IC90 concentrations of the drugs were then added to prototype plate.
as §7
(§9) In order to quantify viability, 6 wells per treatment group for ViCell counter and 6 wells per condition for MTS were assigned to determine the cell viability. Using Vi-Cell counter, assigned wells were filled with extra 210 μl of media to keep the volume constant in all the wells. Media from the assigned wells were transferred into a 24-well plate, and the well location was recorded. About 50 μl of trypLE was added to each well and allowed to trypsinize for a maximum of ten minutes. A small amount of media from the 24-well plate was transferred back into corresponding wells of the prototype plate to collect detached cells.
(§10) Media and cells were transferred back into the corresponding well of the 24-well plate. All wells were brought to a final volume of 1.25 mL with PBS and mixed well. About 1 ml of this cell suspension was transferred to ViCell counter to determine the number of viable cells.

A549 cells [7] = experiment: Prototype 96-well plate, viable cell count (Vi-Cell) with and without mechanical forces
Experimental: as §6, §8, §7, §9, §10

Row | SMILES | Growth Rates, With forces (A549 cells [1]) [per day] | Growth Rates, Without forces (A549 cells [1]) [per day] | Effectiveness of The Drug, Without forces (E) (A549 cells [1]) [%] | Effectiveness of The Drug, With forces (Ef) (A549 cells [1]) [%] | IC90 [2] [µM] | Growth Rates, With forces (NCI-H358 cells) [per day] | Growth Rates, Without forces (NCI-H358 cells) [per day] | Effectiveness of The Drug, Without forces (E) (NCI-H358 cells) [%] | Effectiveness of The Drug, With forces (Ef) (NCI-H358 cells) [%] | MTS absorbance after 24 hours of drug exposure, With forces (Ef) (H358 cells [4]) | MTS absorbance after 24 hours of drug exposure, Without forces (E) (H358 cells [4]) | Effect of mechanical forces on viable cell count / cytotoxicity (H358 cells [5]) | Viable Cell Count after 24 hours of drug exposure, With forces (Ef) (H358 cells [5]) | Viable Cell Count after 24 hours of drug exposure, Without forces (E) (H358 cells [5]) | also measured
1 | N.N.[Cl][Pt][Cl] [Cisplatin] | −0.211 | −0.204 | 91.6 | 74.7 | 50 | −0.233 | −0.027 | 72.4 | 62.1 |  |  |  |  |  | Effectiveness of The Drug, Without forces (E) (A549 cells [1]; listed as P00004): 91.6%; Effectiveness of The Drug, With forces (Ef) (A549 cells [1]; listed as P00004): 74.7%
2 | COc1cccc2c1C(=O)c1c(O)c3c(c(O)c1C2=O)C[C@@](O)(C(=O)CO)C[C@@H]3O[C@H]1C[C@H](N)[C@H](O)[C@H](C)O1 [Doxorubicin] | −0.268 | −0.170 | 90.7 | 78.7 | 30 | −0.357 | −0.031 | 72.7 | 73.9 | 0.488 | 0.629 | decrease in the ability | 7500.0 | 17750.0 | MTS absorbance after 24 hours of drug exposure, With forces (Ef) (A549 cells [3]): 0.430; MTS absorbance after 24 hours of drug exposure, Without forces (E) (A549 cells [3]): 0.697; Effect of mechanical forces on viable cell count / cytotoxicity (A549 cells [6]): Statistically significant reduction
3 | COc1cc2c(Nc3ccc(Br)cc3F)ncnc2cc1OCC1CCN(C)CC1 [Zactima] | −0.398 | −0.055 | 86.8 | 85.6 | 50 | −0.833 | −0.163 | 81.6 | 93.7 | 0.368 | 0.536 | decrease in the ability | 11000.0 | 22000.0 | Effectiveness of The Drug, Without forces (E) (NCI-H358 cells; listed as P00006): 81.6%; Effectiveness of The Drug, With forces (Ef) (NCI-H358 cells; listed as P00006): 93.7%; MTS absorbance after 24 hours of drug exposure, With forces (Ef) (A549 cells [3]; A549, drug at IC90, 24 hours, 490 nm, mechanical forces): 0.307; MTS absorbance after 24 hours of drug exposure, Without forces (E) (A549 cells [3]; A549, drug at IC90, 24 hours, 490 nm, no forces): 0.495; Effect of mechanical forces on viable cell count / cytotoxicity (A549 cells [7]; 24 hours drug exposure, prototype 96-well plate): remained unaffected; Viable Cell Count after 24 hours of drug exposure, With forces (Ef) (A549 cells [7]; drug at IC90, 24 hours, mechanical forces): 15625.0; Viable Cell Count after 24 hours of drug exposure, Without forces (E) (A549 cells [7]; drug at IC90, 24 hours, no forces): 23333.3
